In one assay the target is human PDE1B enzyme (Homo sapiens (Human), UniProt Q01064). Kind of assay: IMAP TR-FRET PDE1B enzymatic assay. The format is biochemical. To be noted: negative log of half-maximal molar inhibitory concentration; 200 nM FAM-cAMP; values given as bins. In outline: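 Full-length GST-tagged human PDE1B (250 pg/well) in IMAP BSA buffer with 10 U/ml calmodulin and 2.5 mM CaCl2; compound pre-incubated 5 min at room temperature, then 200 nM (final) FAM-cAMP for 30 min. IMAP binding reagent/Tb added, 1 h; TR-FRET 520/490 ratio read. IC50 from sigmoidal dose-response fit.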
Background: In TR-FRET formats the signal depends on donor and acceptor labels being close together.
For `Cc1oc2ncnc(NC3(C)CC3)c2c1C(=O)NCc1ccc(C(F)(F)F)cn1` [Example 450, 6-Methyl-4-[(1-methylcyclopropyl)amino]-N-{[5-(trifluoromethyl)pyridin-2-yl]methyl}furo[2,3-d]pyrimidine-5-carboxamide], the “PDE1b (pIC50)” value is greater than 8.

Consider `Cc1nsc(NC(=O)c2c(C)oc3ncnc(NC4(C)CC4)c23)n1` [Example 454, 6-Methyl-N-(3-methyl-1,2,4-thiadiazol-5-yl)-4-[(1-methylcyclopropyl)amino]furo[2,3-d]pyrimidine-5-carboxamide], for which the “PDE1b (pIC50)” value is on record as greater than 8.

As to `Cc1cnc(CNC(=O)c2c(C)oc3ncnc(NC4(C)CC4)c23)cn1` [Example 460, 6-Methyl-4-[(1-methylcyclopropyl)amino]-N-[(5-methylpyrazin-2-yl)methyl]furo[2,3-d]pyrimidine-5-carboxamide], the “PDE1b (pIC50)” value was greater than 8.

In the case of `Cc1oc2ncnc(NC3(C)CC3)c2c1C(=O)NCc1noc(C2CC2)n1` [Example 464, N-[(5-Cyclopropyl-1,2,4-oxadiazol-3-yl)methyl]-6-methyl-4-[(1-methylcyclopropyl)amino]furo[2,3-d]pyrimidine-5-carboxamide], the “PDE1b (pIC50)” value was greater than 8.

On to `Cc1cnc(CNC(=O)c2c(C)oc3ncnc(NC4(C)CC4)c23)s1` [Example 467, 6-Methyl-N-[(5-methyl-1,3-thiazol-2-yl)methyl]-4-[(1-methylcyclopropyl)amino]furo[2,3-d]pyrimidine-5-carboxamide], for which the “PDE1b (pIC50)” value is on record as greater than 8.

`CCC(NC(=O)c1c(C)oc2ncnc(NC3(C)CC3)c12)c1ccc(OC)cc1` (centres unmarked) [Example 475, N-[1-(4-Methoxyphenyl)propyl]-6-methyl-4-[(1-methylcyclopropyl)amino]furo[2,3-d]pyrimidine-5-carboxamide]: the “PDE1b (pIC50)” value was greater than 8.

Regarding `COc1ccc(CNC(=O)c2c(C)oc3ncnc(NC4(C)CC4)c23)cc1F` [Example 483, N-[(3-Fluoro-4-methoxyphenyl)methyl]-6-methyl-4-[(1-methylcyclopropyl)amino]furo[2,3-d]pyrimidine-5-carboxamide], the “PDE1b (pIC50)” value is greater than 8.

Take `COc1ccc(CNC(=O)c2c(C)oc3ncnc(NC4(C)CC4)c23)cc1Cl` [Example 488, N-[(3-Chloro-4-methoxyphenyl)methyl]-6-methyl-4-[(1-methylcyclopropyl)amino]furo[2,3-d]pyrimidine-5-carboxamide]: the “PDE1b (pIC50)” value is greater than 8.

The same assay, now with this note: negative log of half-maximal molar inhibitory concentration; 200 nM FAM-cAMP; values given as bins; read-out: PDE1b (pIC50) (converted).
For the compound `Cc1oc2ncnc(NC3(C)CC3)c2c1C(=O)Nc1ccn(-c2ncccc2F)n1` [Example 446, N-[1-(3-Fluoropyridin-2-yl)-1H-pyrazol-3-yl]-6-methyl-4-[(1-methylcyclopropyl)amino]furo[2,3-d]pyrimidine-5-carboxamide], the IC50 was 10 to 100 nM.

For the compound `Cc1oc2ncnc(NC3(C)CC3)c2c1C(=O)Nc1cnn(-c2ncccc2F)c1` [Example 447, N-[1-(3-Fluoropyridin-2-yl)-1H-pyrazol-4-yl]-6-methyl-4-[(1-methylcyclopropyl)amino]furo[2,3-d]pyrimidine-5-carboxamide], the IC50 was 10 to 100 nM.

On to `Cc1cnc(CNC(=O)c2c(C)oc3ncnc(NC4(C)CC4)c23)o1` [Example 448, 6-Methyl-N-[(5-methyl-1,3-oxazol-2-yl)methyl]-4-[(1-methylcyclopropyl)amino]furo[2,3-d]pyrimidine-5-carboxamide], for which the IC50 is 10 to 100 nM.

For the compound `COc1nccc(CNC(=O)c2c(C)oc3ncnc(NC4(C)CC4)c23)n1` [Example 449, N-[(2-Methoxypyrimidin-4-yl)methyl]-6-methyl-4-[(1-methylcyclopropyl)amino]furo[2,3-d]pyrimidine-5-carboxamide], the IC50 was 10 to 100 nM.

For the compound `Cc1coc(NC(=O)c2c(C)oc3ncnc(NC4(C)CC4)c23)n1` [Example 451, 6-Methyl-N-(4-methyl-1,3-oxazol-2-yl)-4-[(1-methylcyclopropyl)amino]furo[2,3-d]pyrimidine-5-carboxamide], the IC50 was 10 to 100 nM.

With `Cc1noc(NC(=O)c2c(C)oc3ncnc(NC4(C)CC4)c23)n1` [Example 452, 6-Methyl-N-(3-methyl-1 2 4-oxadiazol-5-yl)-4-[(1-methylcyclopropyl)amino]furo[2,3-d]pyrimidine-5-carboxamide], the IC50 is 10 to 100 nM.

For the compound `Cc1nc(NC(=O)c2c(C)oc3ncnc(NC4(C)CC4)c23)cs1` [Example 453, 6-Methyl-N-(2-methyl-1,3-thiazol-4-yl)-4-[(1-methylcyclopropyl)amino]furo[2,3-d]pyrimidine-5-carboxamide], the IC50 is 10 to 100 nM.

As for `Cc1ncnc2c1CCN(C(=O)c1c(C)oc3ncnc(NC4(C)CC4)c13)C2` [Example 455, 6-Methyl-5-f{4-methyl-5H,6H,7H,8H-pyrido[3,4-d]pyrimidine-7-carbonyl}-N-(1-methylcyclopropyl)furo[2,3-d]pyrimidin-4-amine], the IC50 is 10 to 100 nM.

Turning to `Cc1oc2ncnc(NC3(C)CC3)c2c1C(=O)Nc1cnn(C2CCOCC2)c1` [Example 456, 6-Methyl-4-[(1-methylcyclopropyl)amino]-N-[1-(oxan-4-yl)-1H-pyrazol-4-yl]furo[2,3-d]pyrimidine-5-carboxamide], the IC50 was 10 to 100 nM.

For the compound `Cc1oc2ncnc(NC3(C)CC3)c2c1C(=O)NCc1noc(C(F)(F)F)n1` [Example 457, 6-Methyl-4-[(1-methylcyclopropyl)amino]-N-{[5-(trifluoromethyl)-1,2,4-oxadiazol-3-yl]methyl}furo[2,3-d]pyrimidine-5-carboxamide], the IC50 was 10 to 100 nM.

As for `Cc1ccnc(CNC(=O)c2c(C)oc3ncnc(NC4(C)CC4)c23)n1` [Example 458, 6-Methyl-4-[(1-methylcyclopropyl)amino]-N-[(4-methylpyrimidin-2-yl)methyl]furo[2,3-d]pyrimidine-5-carboxamide], the IC50 was 10 to 100 nM.

For `Cc1cc(C)nc(CNC(=O)c2c(C)oc3ncnc(NC4(C)CC4)c23)n1` [Example 459, N-[(4,6-Dimethylpyrimidin-2-yl)methyl]-6-methyl-4-[(1-methylcyclopropyl)amino]furo[2,3-d]pyrimidine-5-carboxamide], the IC50 is 10 to 100 nM.

As for `Cc1nc(CNC(=O)c2c(C)oc3ncnc(NC4(C)CC4)c23)no1` [Example 461, 6-Methyl-N-[(5-methyl-1,2,4-oxadiazol-3-yl)methyl]-4-[(1-methylcyclopropyl)amino]furo[2,3-d]pyrimidine-5-carboxamide], the IC50 was 10 to 100 nM.

`COC(=O)c1cnc(C2CN(C(=O)c3c(C)oc4ncnc(NC5(C)CC5)c34)C2)nc1` [Example 462, Methyl 2-(1-{6-methyl-4-[(1-methylcyclopropyl)amino]furo[2,3-d]pyrimidine-5-carbonyl}azetidin-3-yl)pyrimidine-5-carboxylate]: the IC50 is 100 to 1000 nM.

For the compound `Cc1oc2ncnc(NC3(C)CC3)c2c1C(=O)NCc1nnc2ccc(C(F)(F)F)cn12` [Example 463, 6-Methyl-4-[(1-methylcyclopropyl)amino]-N-{[6-(trifluoromethyl)-[1,2,4]triazolo[4,3-a]pyridin-3-yl]methyl}furo[2,3-d]pyrimidine-5-carboxamide], the IC50 is 10 to 100 nM.

As for `Cc1oc2ncnc(NC3(C)CC3)c2c1C(=O)N1CCc2c(ncnc2OC(C)C)C1` [Example 465, 6-Methyl-N-(1-methylcyclopropyl)-5-[4-(propan-2-yloxy)-5H,6H,7H,8H-pyrido[3,4-d]pyrimidine-7-carbonyl]furo[2,3-d]pyrimidin-4-amine], the IC50 was 10 to 100 nM.

In the case of `Cc1ccnc(CNC(=O)c2c(C)oc3ncnc(NC4(C)CC4)c23)c1` [Example 466, 6-Methyl-4-[(1-methylcyclopropyl)amino]-N-[(4-methylpyridin-2-yl)methyl]furo[2,3-d]pyrimidine-5-carboxamide], the IC50 is 10 to 100 nM.

On to `Cc1nnc(CNC(=O)c2c(C)oc3ncnc(NC4(C)CC4)c23)s1` [Example 468, 6-Methyl-N-[(5-methyl-1,3,4-thiadiazol-2-yl)methyl]-4-[(1-methylcyclopropyl)amino]furo[2,3-d]pyrimidine-5-carboxamide], for which the IC50 was 10 to 100 nM.

For `Cc1oc2ncnc(NC3(C)CC3)c2c1C(=O)N(C)c1cnn(C)c1` [Example 469, N,6-Dimethyl-N-(1-methyl-1H-pyrazol-4-yl)-4-[(1-methylcyclopropyl)amino]furo[2,3-d]pyrimidine-5-carboxamide], the IC50 was 100 to 1000 nM.

On to `Cc1oc2ncnc(NC3(C)CC3)c2c1C(=O)N(C)c1cnn(C(C)C)c1` [Example 470, N,6-Dimethyl-4-[(1-methylcyclopropyl)amino]-N-[1-(propan-2-yl)-1H-pyrazol-4-yl]furo[2,3-d]pyrimidine-5-carboxamide], for which the IC50 is 100 to 1000 nM.

In the case of `Cc1oc2ncnc(NC3(C)CC3)c2c1C(=O)N1CCc2cncnc2C1` [Example 471, 6-Methyl-N-(1-methylcyclopropyl)-5-f{5H,6H,7H,8H-pyrido[3,4-d]pyrimidine-7-carbonyl}furo[2,3-d]pyrimidin-4-amine], the IC50 is 10 to 100 nM.

As to `Cc1oc2ncnc(NC3(C)CC3)c2c1C(=O)Nc1cnn(Cc2ccccn2)c1` [Example 472, 6-Methyl-4-[(1-methylcyclopropyl)amino]-N-[1-(pyridin-2-ylmethyl)-1H-pyrazol-4-yl]furo[2,3-d]pyrimidine-5-carboxamide], the IC50 was 10 to 100 nM.

In the case of `Cc1oc2ncnc(NC3(C)CC3)c2c1C(=O)Nc1cnn(-c2ncccn2)c1` [Example 473, 6-Methyl-4-[(1-methylcyclopropyl)amino]-N-[1-(pyrimidin-2-yl)-1H-pyrazol-4-yl]furo[2,3-d]pyrimidine-5-carboxamide], the IC50 is 10 to 100 nM.

Take `COc1cc(CNC(=O)c2c(C)oc3ncnc(NC4(C)CC4)c23)ccc1O` [Example 487, N-[(4-Hydroxy-3-methoxyphenyl)methyl]-6-methyl-4-[(1-methylcyclopropyl)amino]furo[2,3-d]pyrimidine-5-carboxamide]: the IC50 is 10 to 100 nM.

The values are drawn from US20250145633A1, “SUBSTITUTED FURANOPYRIMIDINE COMPOUNDS AS PDE1 INHIBITORS” (Dart NeuroScience, LLC, priority 2017, published 2025).
